Structures can show the parent of a compound that is named as a salt. Where two headings read alike, the source gives them in different places. Blank lines part the entries; values can stand above or below the molecule they belong to.
How the values were obtained:
[1] = system: healthy subjects; experiment: Phase 1 single ascending dose trial of intravenous HBI-3000: continuous 12-lead Holter ECG, baseline and placebo subtracted (ΔΔ) ECG intervals at Cmax; assay type: in vivo, human
Experimental: (§1) HBI-3000 (sulcardine sulfate) was administered to human subjects according to the protocol provided in (Clinical Trials.gov Identifier: NCT03397641. That protocol is incorporated herein by reference in its entirety.
(§2) Objective: Provided herein are the safety, tolerability, pharmacokinetics and electrocardiogram (ECG) results of a Phase 1 single ascending dose trial of intravenous (IV) HBI-3000 in healthy subjects.
(§3) Methods: […] subjects were randomized to 6 cohorts of 8 subjects to receive 1 of 5 single ascending iv doses (Table 2) of HBI-3000 or placebo (6:2), with 2 cohorts receiving the 600 mg dose. Doses of HBI-3000 ranged from 20 mg (Cohort A), 60 mg (Cohort B), 180 mg (Cohort C), 360 mg (Cohort D), to 600 mg (Cohort E and F). Drug was a lyophilized powder, reconstituted to […] then diluted in saline for delivery via intravenous infusion as a 50 mL solution over 30 minutes.
Continuous 12-lead Holter ECG data were recorded at baseline and 11 time points thereafter. Mean baseline and placebo subtracted (ΔΔ) ECG intervals (QTcF, HR, PR, QRS, and P-wave duration [PDur]) and T-wave segments (J to T peak [JTp] and T peak to T end [TpTe]) were calculated at Cmax for each dose.
Table 2 summarizes ECG data at Cmax for each dose, as predicted by mixed-effects modeling. […] The increases in QRS and PDur are consistent with block of INa-Peak. The increase in the PR interval is consistent with the increase in PDur and with both INa-Peak and ICa,L inhibition. Prolongation of TpTe is consistent with IKr block, which would be expected, in isolation, to lengthen JTp as well. The observed dose-related reduction of JTp is likely due to counteraction of the effect of HBI-3000 on IKr through its inhibition of both INa-Late, and ICa,L.

[2] = Phase 1 single ascending dose trial of intravenous HBI-3000: pharmacokinetics; assay type: in vivo; conditions: human, plasma
Experimental: as §1, §2, §3
In some instances, the patient is administered 350 mg of HBI-3000.

[3] = system: healthy subjects; experiment: Phase 1 single ascending dose trial of intravenous HBI-3000: safety and tolerability; assay type: in vivo, human; conditions: single ascending iv doses 20-600 mg
Experimental: as §1, §2, §3

[4] = target: INa-Peak (Homo sapiens, UniProt Q14524); conditions: background statement; cited from earlier work
Sequence of INa-Peak (Q14524 whole entry): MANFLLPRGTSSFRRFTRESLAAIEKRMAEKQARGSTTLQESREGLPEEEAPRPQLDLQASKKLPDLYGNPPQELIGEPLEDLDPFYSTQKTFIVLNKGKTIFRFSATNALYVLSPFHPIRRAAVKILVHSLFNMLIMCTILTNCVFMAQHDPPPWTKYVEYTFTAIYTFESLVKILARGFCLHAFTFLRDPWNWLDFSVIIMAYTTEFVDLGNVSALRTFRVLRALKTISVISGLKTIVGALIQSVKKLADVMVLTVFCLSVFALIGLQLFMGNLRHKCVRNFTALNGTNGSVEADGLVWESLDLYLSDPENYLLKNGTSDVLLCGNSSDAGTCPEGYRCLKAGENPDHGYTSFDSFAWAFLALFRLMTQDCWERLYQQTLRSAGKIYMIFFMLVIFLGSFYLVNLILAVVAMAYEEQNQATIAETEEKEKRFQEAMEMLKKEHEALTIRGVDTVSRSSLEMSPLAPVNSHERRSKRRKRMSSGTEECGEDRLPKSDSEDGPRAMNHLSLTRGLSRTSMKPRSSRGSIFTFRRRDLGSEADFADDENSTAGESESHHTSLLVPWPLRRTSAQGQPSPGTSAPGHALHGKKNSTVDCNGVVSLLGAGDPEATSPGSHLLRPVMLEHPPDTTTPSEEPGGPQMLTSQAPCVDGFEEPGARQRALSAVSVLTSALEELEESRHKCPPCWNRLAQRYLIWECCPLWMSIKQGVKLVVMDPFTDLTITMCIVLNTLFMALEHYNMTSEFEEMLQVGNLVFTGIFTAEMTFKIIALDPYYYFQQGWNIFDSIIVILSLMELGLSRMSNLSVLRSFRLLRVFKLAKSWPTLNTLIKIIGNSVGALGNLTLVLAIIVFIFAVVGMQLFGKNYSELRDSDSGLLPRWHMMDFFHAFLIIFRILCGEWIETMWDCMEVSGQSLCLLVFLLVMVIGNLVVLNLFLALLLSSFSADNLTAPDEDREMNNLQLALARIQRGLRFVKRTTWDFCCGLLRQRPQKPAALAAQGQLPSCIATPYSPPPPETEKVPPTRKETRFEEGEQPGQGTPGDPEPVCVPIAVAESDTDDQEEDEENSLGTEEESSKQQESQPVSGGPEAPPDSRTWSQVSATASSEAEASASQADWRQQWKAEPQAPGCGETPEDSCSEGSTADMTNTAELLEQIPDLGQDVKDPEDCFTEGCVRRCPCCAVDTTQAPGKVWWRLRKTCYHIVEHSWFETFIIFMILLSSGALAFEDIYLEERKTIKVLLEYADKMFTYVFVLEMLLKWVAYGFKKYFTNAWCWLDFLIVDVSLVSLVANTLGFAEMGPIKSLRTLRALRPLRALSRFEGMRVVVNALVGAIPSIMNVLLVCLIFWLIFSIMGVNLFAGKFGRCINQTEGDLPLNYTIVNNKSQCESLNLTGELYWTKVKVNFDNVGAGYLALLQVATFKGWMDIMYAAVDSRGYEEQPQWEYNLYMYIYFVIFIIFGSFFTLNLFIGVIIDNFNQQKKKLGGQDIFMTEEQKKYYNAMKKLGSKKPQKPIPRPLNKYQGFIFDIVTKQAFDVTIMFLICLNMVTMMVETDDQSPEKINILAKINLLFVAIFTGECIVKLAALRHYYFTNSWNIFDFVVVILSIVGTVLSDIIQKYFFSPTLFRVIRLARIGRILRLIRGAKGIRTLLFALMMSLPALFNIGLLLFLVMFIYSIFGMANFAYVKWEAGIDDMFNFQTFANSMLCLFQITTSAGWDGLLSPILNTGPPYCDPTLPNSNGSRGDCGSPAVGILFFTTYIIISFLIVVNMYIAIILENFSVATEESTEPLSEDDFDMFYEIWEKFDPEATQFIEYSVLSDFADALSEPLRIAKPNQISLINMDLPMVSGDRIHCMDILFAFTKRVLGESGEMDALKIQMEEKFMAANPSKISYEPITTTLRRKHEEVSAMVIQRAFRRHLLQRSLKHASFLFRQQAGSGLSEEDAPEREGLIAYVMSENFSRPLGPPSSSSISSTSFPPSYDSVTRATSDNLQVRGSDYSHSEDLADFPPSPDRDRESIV

[5] = target: INa-Late (Homo sapiens, UniProt Q14524); conditions: background statement; cited from earlier work
Sequence of INa-Late (Q14524 whole entry): as above

[6] = target: ICa,L (Homo sapiens, UniProt Q13936); conditions: background statement; cited from earlier work
[7] = target: IKr (Homo sapiens, UniProt Q12809); conditions: background statement; cited from earlier work
[8] = Chen et al.; cited from earlier work
[9] = 20 mg single iv infusion over 30 min, at Cmax 135 ng/ml, N=6, concentration-effect regression model
[10] = 60 mg single iv infusion over 30 min, at Cmax 378 ng/ml, N=6, concentration-effect regression model
[11] = 180 mg single iv infusion over 30 min, at Cmax 1530 ng/ml, N=6, concentration-effect regression model
[12] = 360 mg single iv infusion over 30 min, at Cmax 3120 ng/ml, N=5, concentration-effect regression model
[13] = 600 mg single iv infusion over 30 min, at Cmax 5280 ng/ml, N=12, concentration-effect regression model
[14] = concentration-effect regression model, iv doses 20-600 mg
[15] = 20 mg single iv infusion over 30 min, healthy subjects, N=6
[16] = 60 mg single iv infusion over 30 min, healthy subjects, N=6
[17] = 180 mg single iv infusion over 30 min, healthy subjects, N=6
[18] = 360 mg single iv infusion over 30 min, healthy subjects, N=5
[19] = 600 mg single iv infusion over 30 min, healthy subjects, N=12

AUC(0-t) ([2]; intravenous, 350 mg, read-out: AUC (0-24)): 2880 ng·h/mL | AUC(0-t) ([2]; intravenous, 350 mg, read-out: AUC (0-last)): 3370 ng·h/mL | Cmax ([2]; intravenous, 350 mg, read-out: Cmax): 3080 ng/mL | AUC(0-inf) ([2]; intravenous, 350 mg dose): 3720 ng·h/mL | half-life ([2]; intravenous, 350 mg dose): 43 h | Tmax ([2]; intravenous, 350 mg dose, read-out: Tmax): 27 min | Cmax ([2]; iv, 20 mg, 20 mg single iv infusion over 30 min, N=6, as used for ΔΔECG model, read-out: Cmax (Table 2)): 135 ng/mL | AUC(0-t) ([2]; iv, 20 mg, 20 mg single iv infusion over 30 min, healthy subjects, N=6, read-out: AUC (0-24)): 89.7 ng·h/mL | AUC(0-t) ([2]; iv, 20 mg, 20 mg single iv infusion over 30 min, healthy subjects, N=6, read-out: AUC (0-last)): 86.2 ng·h/mL | Cmax ([2]; iv, 20 mg, 20 mg single iv infusion over 30 min, healthy subjects, N=6, read-out: Cmax): 131 ng/mL | Cmax ([2]; iv, 60 mg, 60 mg single iv infusion over 30 min, N=6, as used for ΔΔECG model, read-out: Cmax (Table 2)): 378 ng/mL | AUC(0-t) ([2]; iv, 60 mg, 60 mg single iv infusion over 30 min, healthy subjects, N=6, read-out: AUC (0-24)): 299 ng·h/mL | AUC(0-t) ([2]; iv, 60 mg, 60 mg single iv infusion over 30 min, healthy subjects, N=6, read-out: AUC (0-last)): 306 ng·h/mL | Cmax ([2]; iv, 60 mg, 60 mg single iv infusion over 30 min, healthy subjects, N=6, read-out: Cmax): 369 ng/mL | Cmax ([2]; iv, 180 mg, 180 mg single iv infusion over 30 min, N=6, as used for ΔΔECG model, read-out: Cmax (Table 2)): 1530 ng/mL | AUC(0-t) ([2]; iv, 180 mg, 180 mg single iv infusion over 30 min, healthy subjects, N=6, read-out: AUC (0-24)): 1270 ng·h/mL | AUC(0-t) ([2]; iv, 180 mg, 180 mg single iv infusion over 30 min, healthy subjects, N=6, read-out: AUC (0-last)): 1550 ng·h/mL | Cmax ([2]; iv, 180 mg, 180 mg single iv infusion over 30 min, healthy subjects, N=6, read-out: Cmax): 1430 ng/mL | Cmax ([2]; iv, 360 mg, 360 mg single iv infusion over 30 min, N=5, as used for ΔΔECG model, read-out: Cmax (Table 2)): 3120 ng/mL | AUC(0-t) ([2]; iv, 360 mg, 360 mg single iv infusion over 30 min, healthy subjects, N=5, read-out: AUC (0-24)): 2960 ng·h/mL | AUC(0-t) ([2]; iv, 360 mg, 360 mg single iv infusion over 30 min, healthy subjects, N=5, read-out: AUC (0-last)): 3470 ng·h/mL | Cmax ([2]; iv, 360 mg, 360 mg single iv infusion over 30 min, healthy subjects, N=5, read-out: Cmax): 3170 ng/mL | Cmax ([2]; iv, 600 mg, 600 mg single iv infusion over 30 min, N=12, as used for ΔΔECG model, read-out: Cmax (Table 2)): 5280 ng/mL | AUC(0-t) ([2]; iv, 600 mg, 600 mg single iv infusion over 30 min, healthy subjects, N=12, read-out: AUC (0-24)): 5810 ng·h/mL | AUC(0-t) ([2]; iv, 600 mg, 600 mg single iv infusion over 30 min, healthy subjects, N=12, read-out: AUC (0-last)): 6640 ng·h/mL | Cmax ([2]; iv, 600 mg, 600 mg single iv infusion over 30 min, healthy subjects, N=12, read-out: Cmax): 5580 ng/mL | AUC(0-inf) [2, 15]: 175 ng·h/mL | half-life [2, 15]: 0.62 h | Tmax ([2]; 20 mg single iv infusion over 30 min, healthy subjects, N=6, read-out: Tmax Mean): 25.2 min | AUC(0-inf) [2, 16]: 312 ng·h/mL | half-life [2, 16]: 9.16 h | Tmax ([2]; 60 mg single iv infusion over 30 min, healthy subjects, N=6, read-out: Tmax Mean): 22.8 min | AUC(0-inf) [2, 17]: 2050 ng·h/mL | half-life [2, 17]: 54.8 h | Tmax ([2]; 180 mg single iv infusion over 30 min, healthy subjects, N=6, read-out: Tmax Mean): 27.6 min | AUC(0-inf) [2, 18]: 3830 ng·h/mL | half-life [2, 18]: 43.7 h | Tmax ([2]; 360 mg single iv infusion over 30 min, healthy subjects, N=5, read-out: Tmax Mean): 27 min | AUC(0-inf) [2, 19]: 7580 ng·h/mL | half-life [2, 19]: 41.1 h | Tmax ([2]; 600 mg single iv infusion over 30 min, healthy subjects, N=12, read-out: Tmax Mean): 27.6 min
SMILES: COc1ccc(S(=O)(=O)NCc2cc(CN3CCCC3)c(O)c(CN3CCCC3)c2)cc1 [HBI-3000, sulcardine sulfate]
ΔΔHR [1, 9]: 1.74 bpm | ΔΔJTp [1, 9]: -2.87 ms | ΔΔPDur [1, 9]: 3.17 ms | ΔΔPR [1, 9]: 5.08 ms | ΔΔQRS [1, 9]: -0.08 ms | ΔΔQTcF [1, 9]: 1.40 ms | ΔΔTpTe [1, 9]: 1.95 ms | ΔΔHR [1, 10]: 2.21 bpm | ΔΔJTp [1, 10]: -5.28 ms | ΔΔPDur [1, 10]: 3.71 ms | ΔΔPR [1, 10]: 6.06 ms | ΔΔQRS [1, 10]: 0.54 ms | ΔΔQTcF [1, 10]: 2.35 ms | ΔΔTpTe [1, 10]: 2.20 ms | ΔΔHR [1, 11]: 4.44 bpm | ΔΔJTp [1, 11]: -15.09 ms | ΔΔPDur [1, 11]: 6.24 ms | ΔΔPR [1, 11]: 10.73 ms | ΔΔQRS [1, 11]: 3.50 ms | ΔΔQTcF [1, 11]: 6.89 ms | ΔΔTpTe [1, 11]: 3.37 ms | ΔΔHR [1, 12]: 7.70 bpm | ΔΔJTp [1, 12]: -24.60 ms | ΔΔPDur [1, 12]: 9.93 ms | ΔΔPR [1, 12]: 17.53 ms | ΔΔQRS [1, 12]: 7.81 ms | ΔΔQTcF [1, 12]: 13.50 ms | ΔΔTpTe [1, 12]: 5.07 ms | ΔΔHR [1, 13]: 12.75 bpm | ΔΔJTp [1, 13]: -28.10 ms | ΔΔPDur [1, 13]: 15.67 ms | ΔΔPR [1, 13]: 28.10 ms | ΔΔQRS [1, 13]: 14.50 ms | ΔΔQTcF [1, 13]: 23.77 ms | ΔΔTpTe [1, 13]: 7.72 ms | onset and loss of pharmacodynamic effect ([1]; about 400 mg to about 800 mg according to the protocol, human subjects): quickly effective and then quickly loses its effect | Slope, ΔΔHR [1, 14]: 0.0019 | Slope, ΔΔJTp [1, 14]: −0.0000 | Slope, ΔΔPDur [1, 14]: 0.0022 | Slope, ΔΔPR [1, 14]: 0.0040 | Slope, ΔΔQRS [1, 14]: 0.0026 | Slope, ΔΔQTcF [1, 14]: 0.0039 | Slope, ΔΔTpTe [1, 14]: 0.0010 | changes in ECG parameters ([1]; single ascending iv doses 20-600 mg, healthy subjects): dose-proportional changes in all ECG parameters | safety, tolerability [3]: well tolerated with no dose limiting adverse events or arrhythmias observed | in vitro inhibitory effects on INa-Peak [4]: relatively balanced in vitro inhibitory effects | in vitro inhibitory effects on INa-Late [5]: relatively balanced in vitro inhibitory effects | in vitro inhibitory effects on ICa,L [6]: relatively balanced in vitro inhibitory effects | in vitro inhibitory effects on IKr [7]: relatively balanced in vitro inhibitory effects

SMILES: COc1ccc(S(=O)(=O)NCc2cc(CN3CCCC3)c(O)c(CN3CCCC3)c2)cc1 [sulcardine, N-[4-hydroxy-3,5-bis(1-pyrrolidinylmethyl)benzyl]-4-methoxybenzenesulfonamide]
expected half-life for oral administration [8]: about 16 hours
